Measurements as given in ChEMBL document CHEMBL5393442, “Combined inhibition of amino acid transporters for inhibiting human plasmacytoid dendritic cell activity during autoimmunity” (2022).
Active and inactive are the calls of the source. The rule behind the calls is not given here.

Columns and labels:
[1] = target: T1, Cystine/glutamate transporter (Homo sapiens, UniProt Q9UPY5); test: Inhibition of XCT (unknown origin)
T1 sequence (Q9UPY5 whole entry): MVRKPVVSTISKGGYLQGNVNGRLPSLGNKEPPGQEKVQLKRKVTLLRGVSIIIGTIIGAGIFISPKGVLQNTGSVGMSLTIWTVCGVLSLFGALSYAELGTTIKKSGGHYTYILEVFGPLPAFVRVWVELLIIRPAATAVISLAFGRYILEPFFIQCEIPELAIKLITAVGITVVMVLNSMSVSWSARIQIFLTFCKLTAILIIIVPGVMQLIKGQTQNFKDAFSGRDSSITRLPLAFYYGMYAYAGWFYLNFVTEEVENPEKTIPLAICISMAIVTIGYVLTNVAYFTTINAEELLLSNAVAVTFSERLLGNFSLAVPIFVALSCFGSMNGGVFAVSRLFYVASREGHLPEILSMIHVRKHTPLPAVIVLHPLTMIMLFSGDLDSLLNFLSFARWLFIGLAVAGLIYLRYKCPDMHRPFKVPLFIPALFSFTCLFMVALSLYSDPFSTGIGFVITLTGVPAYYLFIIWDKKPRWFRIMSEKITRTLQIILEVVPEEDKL

[2] = test system: Plasmacytoid dendritic cell; test: Inhibition of mTORC1/mTORC2 in CpG-A and IL-3-activated human plasmacytoid dendritic cells at 200 ng/mL assessed as decrease in SLC7A5 expression; type: cell-based
[3] = test system: Plasmacytoid dendritic cell; test: Inhibition of mTORC1/mTORC2 in CpG-A and IL-3-activated human plasmacytoid dendritic cells at 200 ng/mL assessed as decrease in SLC3A2 expression; type: cell-based
[4] = test system: Plasmacytoid dendritic cell; test: Inhibition of mTORC1/mTORC2 in CpG-A and IL-3-activated human plasmacytoid dendritic cells at 200 ng/mL assessed as decrease in IFN-alpha production; type: cell-based
[5] = test system: Plasmacytoid dendritic cell; test: Inhibition of mTORC1/mTORC2 in CpG-A and IL-3-activated human plasmacytoid dendritic cells at 200 ng/mL assessed as decrease in TNF production; type: cell-based
[6] = test system: Plasmacytoid dendritic cell; test: Inhibition of mTORC1/mTORC2 in TLR9-activated human plasmacytoid dendritic cells at 1 uM assessed as decrease in CpG-A stimulated SLC7A11 expression; type: cell-based
[7] = test system: Plasmacytoid dendritic cell; test: Inhibition of mTORC1/mTORC2 in IL-3 and CpG-A-activated human plasmacytoid dendritic cells at 200 nM assessed as decrease in decrease in ENPP2/IFNA2 expression; type: cell-based
[8] = test system: Plasmacytoid dendritic cell; test: Inhibition of mTORC1/mTORC2 in IL-3 and CpG-A-activated human plasmacytoid dendritic cells at 200 nM assessed as decrease in decrease in MYO1E/IFNA2 expression; type: cell-based
[9] = target: T2, Cystine/glutamate transporter (Homo sapiens) (UniProt Q9UPY5); test: Inhibition of XCT in CpG-A-activated human plasmacytoid dendritic cells at 5 uM assessed as decrease in IFN-alpha production; type: cell-based; settings: Plasmacytoid dendritic cell
T2 sequence (whole entry): T1 sequence (Q9UPY5 whole entry)

[10] = target: T2, Cystine/glutamate transporter (Homo sapiens); test: Inhibition of XCT in CpG-A-activated human plasmacytoid dendritic cells at 5 uM assessed as decrease in TNF production; type: cell-based; settings: Plasmacytoid dendritic cell
[11] = target: T2, Cystine/glutamate transporter (Homo sapiens); test: Inhibition of XCT in CpG-A-activated human plasmacytoid dendritic cells at 5 uM assessed as decrease in S6 phosphorylation; type: cell-based; settings: Plasmacytoid dendritic cell
[12] = target: T2, Cystine/glutamate transporter (Homo sapiens); test: Inhibition of XCT in CpG-A-activated human plasmacytoid dendritic cells at 5 uM assessed as decrease in kynurenine uptake; type: cell-based; settings: Plasmacytoid dendritic cell
[13] = target: T2, Cystine/glutamate transporter (Homo sapiens); test: Inhibition of XCT in CpG-A-activated human plasmacytoid dendritic cells at 1 uM assessed as decrease in IFN-alpha production; type: cell-based; settings: Plasmacytoid dendritic cell
[14] = target: T2, Cystine/glutamate transporter (Homo sapiens); test: Inhibition of XCT in CpG-A-activated human plasmacytoid dendritic cells at 1 uM assessed as decrease in TNF production; type: cell-based; settings: Plasmacytoid dendritic cell
[15] = target: T2, Cystine/glutamate transporter (Homo sapiens); test: Inhibition of XCT in CpG-A-activated human plasmacytoid dendritic cells at 10 uM assessed as decrease in ENPP2 expression; type: cell-based; settings: Plasmacytoid dendritic cell
[16] = target: T2, Cystine/glutamate transporter (Homo sapiens); test: Inhibition of XCT in CpG-A-activated human plasmacytoid dendritic cells at 10 uM assessed as decrease in MYO1E expression; type: cell-based; settings: Plasmacytoid dendritic cell
[17] = target: Glyceraldehyde-3-phosphate dehydrogenase (Homo sapiens) (UniProt P04406); test: Inhibition of GAPDH in CpG-A-stimulated human plasmacytoid dendritic cells at 10 uM assessed as reduction in TNF production; type: cell-based; settings: Plasmacytoid dendritic cell
[18] = target: Glyceraldehyde-3-phosphate dehydrogenase (Homo sapiens) (UniProt P04406); test: Inhibition of GAPDH in CpG-A-stimulated human plasmacytoid dendritic cells at 10 uM assessed as reduction in IFNa-alpha production; type: cell-based; settings: Plasmacytoid dendritic cell
[19] = target: Glyceraldehyde-3-phosphate dehydrogenase (Homo sapiens) (UniProt P04406); test: Inhibition of GAPDH in CpG-A-stimulated human plasmacytoid dendritic cells at 10 uM assessed as reduction in overall protein synthesis; type: cell-based; settings: Plasmacytoid dendritic cell
[20] = target: Glyceraldehyde-3-phosphate dehydrogenase (Homo sapiens) (UniProt P04406); test: Inhibition of GAPDH in CpG-A-stimulated human plasmacytoid dendritic cells at 10 uM assessed as reduction in secreted lactate levels; type: cell-based; settings: Plasmacytoid dendritic cell
[21] = target: Glyceraldehyde-3-phosphate dehydrogenase (Homo sapiens) (UniProt P04406); test: Inhibition of GAPDH in CpG-A-stimulated human plasmacytoid dendritic cells at 10 uM assessed as reduction in IFN-alpha production in presence of 1 uM oligomycin; type: cell-based; settings: Plasmacytoid dendritic cell
[22] = target: Glyceraldehyde-3-phosphate dehydrogenase (Homo sapiens) (UniProt P04406); test: Inhibition of GAPDH in CpG-A-stimulated human plasmacytoid dendritic cells at 10 uM assessed as reduction in TNF production in presence of 1 uM oligomycin; type: cell-based; settings: Plasmacytoid dendritic cell
[23] = target: T2, Cystine/glutamate transporter (Homo sapiens); test: Inhibition of XCT in CpG-A-activated human plasmacytoid dendritic cells at 200 uM assessed as decrease in IFN-alpha production; type: cell-based; settings: Plasmacytoid dendritic cell
[24] = target: T2, Cystine/glutamate transporter (Homo sapiens); test: Inhibition of XCT in CpG-A-activated human plasmacytoid dendritic cells at 200 uM assessed as decrease in TNF production; type: cell-based; settings: Plasmacytoid dendritic cell
[25] = target: T2, Cystine/glutamate transporter (Homo sapiens); test: Inhibition of XCT in CpG-A-activated human plasmacytoid dendritic cells at 200 uM assessed as decrease in S6 phosphorylation; type: cell-based; settings: Plasmacytoid dendritic cell
[26] = target: T2, Cystine/glutamate transporter (Homo sapiens); test: Inhibition of XCT in CpG-A-activated human plasmacytoid dendritic cells at 200 uM assessed as decrease in kynurenine uptake; type: cell-based; settings: Plasmacytoid dendritic cell
[27] = target: T2, Cystine/glutamate transporter (Homo sapiens); test: Inhibition of XCT in CpG-A-activated human plasmacytoid dendritic cells at 200 uM assessed as decrease in ENPP2 expression; type: cell-based; settings: Plasmacytoid dendritic cell
[28] = target: T2, Cystine/glutamate transporter (Homo sapiens); test: Inhibition of XCT in CpG-A-activated human plasmacytoid dendritic cells at 200 uM assessed as decrease in MYO1E expression; type: cell-based; settings: Plasmacytoid dendritic cell
[29] = target: T2, Cystine/glutamate transporter (Homo sapiens); test: Inhibition of XCT in CpG-A-activated human plasmacytoid dendritic cells at 100 uM assessed as decrease in IFN-alpha production in presence of 25 to 100 uM baricitinib; type: cell-based; settings: Plasmacytoid dendritic cell
[30] = target: Tyrosine-protein kinase JAK2 (Homo sapiens) (UniProt O60674); test: Inhibition of JAK2 in CpG-A-activated human plasmacytoid dendritic cells at 100 uM assessed as decrease in TNF production in presence of 25 to 100 uM baricitinib; type: cell-based; settings: Plasmacytoid dendritic cell
[31] = target: Large neutral amino acids transporter small subunit 1 (Homo sapiens) (UniProt Q01650); test: Inhibition of human LAT1 at 100 uM relative to control
[32] = target: Tyrosine-protein kinase JAK2 (Homo sapiens) (UniProt O60674); test: Inhibition of JAK2 in TLR9-activated human plasmacytoid dendritic cells at 20 nM assessed as decrease in CpG-A stimulated SLC7A11 expression; type: cell-based; settings: Plasmacytoid dendritic cell
[33] = target: Tyrosine-protein kinase JAK2 (Homo sapiens) (UniProt O60674); test: Inhibition of JAK2 in IL3- and CpG-A-activated human plasmacytoid dendritic cells at 20 nM assessed as decrease in ENPP2/IFNA2 expression; type: cell-based; settings: Plasmacytoid dendritic cell
[34] = target: Tyrosine-protein kinase JAK2 (Homo sapiens) (UniProt O60674); test: Inhibition of JAK2 in IL3- and CpG-A-activated human plasmacytoid dendritic cells at 20 nM assessed as decrease in MYO1E/IFNA2 expression; type: cell-based; settings: Plasmacytoid dendritic cell
[35] = target: T3, mTORC1 (Homo sapiens) (UniProt P42345+Q8N122+Q9BVC4); settings: Plasmacytoid dendritic cell, dose 250.0 nM
Description: Inhibition of mTORC1 in CpG-A-stimulated human plasmacytoid dendritic cells at 250 nM assessed as decrease in lactate release

[36] = target: T3, mTORC1 (Homo sapiens); settings: Plasmacytoid dendritic cell, dose 20.0 nM
Description: Inhibition of mTORC1 in CpG-A-stimulated human plasmacytoid dendritic cells at 20 nM assessed as decrease in lactate release

[37] = target: T2, Cystine/glutamate transporter (Homo sapiens); test: Inhibition of XCT in CpG-A-activated human plasmacytoid dendritic cells at 25 to 100 uM assessed as decrease in TNF production in presence of 100 uM sulfasalazine; type: cell-based; settings: Plasmacytoid dendritic cell, dose 25-100 µM
[38] = test system: Plasmacytoid dendritic cell; test: Inhibition of F1F0-ATP synthase in human plasmacytoid dendritic cells at 1 uM assessed as decrease in IFN-alpha production; type: cell-based
[39] = test system: Plasmacytoid dendritic cell; test: Inhibition of F1F0-ATP synthase in human plasmacytoid dendritic cells at 1 uM assessed as decrease in TNF production; type: cell-based
[40] = test system: Plasmacytoid dendritic cell; test: Inhibition of F1F0-ATP synthase in CpG-A-stimulated human plasmacytoid dendritic cells at 1 uM assessed as reduction in IFN-alpha production in presence of 10 uM heptelidic acid; type: cell-based
[41] = test system: Plasmacytoid dendritic cell; test: Inhibition of F1F0-ATP synthase in CpG-A-stimulated human plasmacytoid dendritic cells at 1 uM assessed as reduction in TNF production in presence of 10 uM heptelidic acid; type: cell-based
[42] = test system: Plasmacytoid dendritic cell; test: Inhibition of SLC7A5/SLC3A2 in CpG-A-stimulated human plasmacytoid dendritic cells at 10 uM assessed as decrease in kynurenine transport; type: cell-based

Sequence of Tyrosine-protein kinase JAK2 (Homo sapiens) (O60674 whole entry): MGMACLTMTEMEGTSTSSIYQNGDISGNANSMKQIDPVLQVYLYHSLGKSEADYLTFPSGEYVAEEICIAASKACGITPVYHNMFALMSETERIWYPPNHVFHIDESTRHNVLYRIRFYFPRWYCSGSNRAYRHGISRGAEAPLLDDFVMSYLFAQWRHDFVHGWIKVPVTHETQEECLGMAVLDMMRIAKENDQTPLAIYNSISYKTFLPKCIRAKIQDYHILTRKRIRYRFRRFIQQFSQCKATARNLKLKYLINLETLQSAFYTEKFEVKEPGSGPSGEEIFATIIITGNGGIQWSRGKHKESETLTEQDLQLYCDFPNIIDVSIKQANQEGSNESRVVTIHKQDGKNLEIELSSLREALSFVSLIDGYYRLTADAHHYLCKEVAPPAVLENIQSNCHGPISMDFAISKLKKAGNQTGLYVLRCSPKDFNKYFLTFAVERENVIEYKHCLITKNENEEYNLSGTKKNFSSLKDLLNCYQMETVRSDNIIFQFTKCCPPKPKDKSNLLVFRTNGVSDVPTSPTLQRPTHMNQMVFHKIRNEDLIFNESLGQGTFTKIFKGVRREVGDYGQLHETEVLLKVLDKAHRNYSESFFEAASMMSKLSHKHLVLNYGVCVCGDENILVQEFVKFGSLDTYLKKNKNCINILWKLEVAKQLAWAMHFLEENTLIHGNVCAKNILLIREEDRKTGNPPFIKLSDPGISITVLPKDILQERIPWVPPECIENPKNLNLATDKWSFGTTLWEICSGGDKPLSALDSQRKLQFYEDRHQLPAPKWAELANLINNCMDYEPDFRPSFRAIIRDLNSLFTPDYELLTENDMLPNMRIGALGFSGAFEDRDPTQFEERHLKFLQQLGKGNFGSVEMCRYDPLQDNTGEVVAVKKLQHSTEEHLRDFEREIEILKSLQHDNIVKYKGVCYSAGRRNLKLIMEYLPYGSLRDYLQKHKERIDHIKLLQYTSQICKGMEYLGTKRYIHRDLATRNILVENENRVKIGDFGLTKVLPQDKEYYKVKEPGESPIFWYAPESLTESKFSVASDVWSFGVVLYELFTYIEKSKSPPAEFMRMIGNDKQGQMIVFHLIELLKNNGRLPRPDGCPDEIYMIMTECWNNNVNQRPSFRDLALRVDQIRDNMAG
Sequence of Glyceraldehyde-3-phosphate dehydrogenase (Homo sapiens) (P04406 2-335 limits assumed): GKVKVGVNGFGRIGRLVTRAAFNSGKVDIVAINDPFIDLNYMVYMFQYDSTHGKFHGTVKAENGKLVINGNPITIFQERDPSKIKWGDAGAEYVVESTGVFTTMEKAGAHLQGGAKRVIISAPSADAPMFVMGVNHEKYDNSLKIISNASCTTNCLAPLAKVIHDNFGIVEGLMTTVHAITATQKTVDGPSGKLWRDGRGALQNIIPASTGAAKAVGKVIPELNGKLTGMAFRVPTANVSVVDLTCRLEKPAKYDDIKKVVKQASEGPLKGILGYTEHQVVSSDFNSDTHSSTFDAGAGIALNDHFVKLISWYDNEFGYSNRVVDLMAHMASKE
Sequence of Large neutral amino acids transporter small subunit 1 (Homo sapiens) (Q01650 whole entry): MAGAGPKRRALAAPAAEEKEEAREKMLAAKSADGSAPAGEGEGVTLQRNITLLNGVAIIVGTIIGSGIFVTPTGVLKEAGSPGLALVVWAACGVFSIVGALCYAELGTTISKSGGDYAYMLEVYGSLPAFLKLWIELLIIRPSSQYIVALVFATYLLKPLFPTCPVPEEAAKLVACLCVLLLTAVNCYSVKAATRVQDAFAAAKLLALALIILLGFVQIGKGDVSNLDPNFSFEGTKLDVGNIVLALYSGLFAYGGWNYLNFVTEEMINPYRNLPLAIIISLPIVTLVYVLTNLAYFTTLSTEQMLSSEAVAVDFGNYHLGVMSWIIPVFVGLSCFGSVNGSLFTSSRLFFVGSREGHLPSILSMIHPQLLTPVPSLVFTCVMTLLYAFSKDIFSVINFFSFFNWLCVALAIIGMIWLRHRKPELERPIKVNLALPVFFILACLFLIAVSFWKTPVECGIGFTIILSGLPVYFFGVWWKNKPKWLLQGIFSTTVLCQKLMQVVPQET
T3 sequence (Q8N122 whole entry, looked up, other chains not shown): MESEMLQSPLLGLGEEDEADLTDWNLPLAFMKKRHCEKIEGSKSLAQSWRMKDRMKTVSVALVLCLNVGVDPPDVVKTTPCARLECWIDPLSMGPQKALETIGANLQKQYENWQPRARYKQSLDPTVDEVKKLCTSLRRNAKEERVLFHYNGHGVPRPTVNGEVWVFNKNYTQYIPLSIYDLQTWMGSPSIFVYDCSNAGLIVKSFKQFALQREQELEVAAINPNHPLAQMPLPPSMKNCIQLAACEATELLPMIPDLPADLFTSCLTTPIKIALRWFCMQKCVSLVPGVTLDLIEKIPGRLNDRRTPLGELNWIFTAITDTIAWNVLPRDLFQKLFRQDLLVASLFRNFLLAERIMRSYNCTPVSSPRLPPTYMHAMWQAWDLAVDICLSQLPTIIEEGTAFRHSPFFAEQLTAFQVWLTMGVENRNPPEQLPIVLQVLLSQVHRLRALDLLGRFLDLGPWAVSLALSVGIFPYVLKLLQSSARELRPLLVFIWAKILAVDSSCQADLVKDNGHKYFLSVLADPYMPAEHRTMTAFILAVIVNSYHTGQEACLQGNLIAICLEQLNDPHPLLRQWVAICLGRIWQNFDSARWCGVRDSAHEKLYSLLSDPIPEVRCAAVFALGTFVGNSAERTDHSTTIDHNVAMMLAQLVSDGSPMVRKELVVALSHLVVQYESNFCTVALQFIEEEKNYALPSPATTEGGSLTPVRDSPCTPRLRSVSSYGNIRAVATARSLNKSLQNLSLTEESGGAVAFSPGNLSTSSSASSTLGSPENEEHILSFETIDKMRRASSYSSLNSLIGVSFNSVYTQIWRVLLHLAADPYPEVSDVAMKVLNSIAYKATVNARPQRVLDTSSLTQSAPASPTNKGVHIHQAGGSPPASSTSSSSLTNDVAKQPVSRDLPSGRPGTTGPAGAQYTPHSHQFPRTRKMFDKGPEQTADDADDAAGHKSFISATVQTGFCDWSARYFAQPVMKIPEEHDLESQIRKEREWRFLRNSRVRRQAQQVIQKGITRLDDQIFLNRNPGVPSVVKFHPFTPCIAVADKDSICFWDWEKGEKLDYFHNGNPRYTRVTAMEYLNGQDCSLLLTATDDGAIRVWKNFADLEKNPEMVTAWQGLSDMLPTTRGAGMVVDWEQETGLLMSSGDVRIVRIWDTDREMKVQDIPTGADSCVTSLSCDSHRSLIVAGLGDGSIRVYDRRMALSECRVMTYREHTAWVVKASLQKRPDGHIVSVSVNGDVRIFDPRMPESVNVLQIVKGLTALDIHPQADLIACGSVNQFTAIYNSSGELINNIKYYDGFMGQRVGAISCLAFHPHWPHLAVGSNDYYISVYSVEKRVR
T3 sequence (Q9BVC4 whole entry, looked up, other chains not shown): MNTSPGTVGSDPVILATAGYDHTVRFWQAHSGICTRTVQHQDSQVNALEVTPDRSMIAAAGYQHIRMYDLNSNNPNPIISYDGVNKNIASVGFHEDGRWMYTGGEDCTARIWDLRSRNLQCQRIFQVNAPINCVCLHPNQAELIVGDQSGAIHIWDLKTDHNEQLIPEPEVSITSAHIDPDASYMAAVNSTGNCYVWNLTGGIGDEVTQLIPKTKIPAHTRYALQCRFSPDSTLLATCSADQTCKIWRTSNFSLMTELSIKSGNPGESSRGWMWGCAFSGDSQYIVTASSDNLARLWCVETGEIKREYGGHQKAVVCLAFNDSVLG

Nc1c(/N=N/c2ccc(Oc3ccccc3)cc2)cc(S(=O)(=O)O)c2ccccc12
IC50 [1]: 14 µM

CCC(=O)N1CCN(c2ccc(-n3c(=O)ccc4cnc5ccc(-c6cnc7ccccc7c6)cc5c43)cc2C(F)(F)F)CC1
inhibition [2]: Active | inhibition [3]: Active | inhibition [4]: Active | inhibition [5]: Active | inhibition [6]: Active | inhibition [7]: Active | inhibition [8]: Active

CCOc1ccccc1-n1c(C(C)N2CCN(C(=O)COc3ccc(Cl)cc3)CC2)nc2ccccc2c1=O (stereo not given)
inhibition [9]: Active | inhibition [10]: Active | inhibition [11]: Active | inhibition [12]: Active | inhibition [13]: Active | inhibition [14]: Active | inhibition [15]: Active | inhibition [16]: Active

CC(C)[C@H]1CC[C@@]2(CO2)[C@H]2C(=O)OCC(C(=O)O)=C[C@H]12
inhibition [17]: Active | inhibition [18]: Active | inhibition [19]: Active | inhibition [20]: Active | inhibition [21]: Active | inhibition [22]: Active

O=C(O)c1cc(/N=N/c2ccc(S(=O)(=O)Nc3ccccn3)cc2)ccc1O [SULFASALAZINE]
inhibition [23]: Active | inhibition [24]: Active | inhibition [25]: Active | inhibition [26]: Active | inhibition [27]: Active | inhibition [28]: Active | inhibition [29]: Active | inhibition [30]: Active | IC50 [1]: 10.4 µM

N#Cc1cc(Cl)ccc1/N=c1\ssnc1Cl
inhibition [31]: > 90%

CO[C@H]1CC2CC[C@@H](C)[C@@](O)(O2)C(=O)C(=O)N2CCCC[C@H]2C(=O)O[C@H]([C@H](C)C[C@@H]2CC[C@@H](O)[C@H](OC)C2)CC(=O)[C@H](C)/C=C(\C)[C@@H](O)[C@@H](OC)C(=O)[C@H](C)C[C@H](C)/C=C/C=C/C=C/1C
inhibition [32]: Active | inhibition [33]: Active | inhibition [34]: Active | inhibition [35]: Active | inhibition [36]: Active

Nc1c(/N=N/c2ccc(SSc3ccc(/N=N/c4cc(S(=O)(=O)O)c5ccccc5c4N)cc3)cc2)cc(S(=O)(=O)O)c2ccccc12
IC50 [1]: 4.3 µM

FC(F)(F)Oc1ccc(/N=c2\ssnc2Cl)cc1Cl
inhibition [31]: > 90%

Cc1cc(Nc2nc(N[C@@H](C)c3ncc(F)cn3)ncc2Cl)[nH]n1
inhibition [6]: Active

Nc1c(/N=N/c2ccc(Br)cc2)cc(S(=O)(=O)O)c2ccccc12
IC50 [1]: 25 µM

Nc1c(/N=N/c2ccc(Oc3ccc(/N=N/c4cc(S(=O)(=O)O)c5ccccc5c4N)cc3)cc2)cc(S(=O)(=O)O)c2ccccc12
IC50 [1]: 11 µM

CCS(=O)(=O)N1CC(CC#N)(n2cc(-c3ncnc4[nH]ccc34)cn2)C1
inhibition [37]: Active

CC[C@H]1/C=C/C=C/C[C@@H](C)[C@H](O)[C@@](C)(O)C(=O)[C@@H](C)[C@H](O)[C@@H](C)C(=O)[C@@H](C)[C@H](O)[C@@H](C)/C=C/C(=O)O[C@@H]2[C@H](C)[C@H](CC1)O[C@]1(CC[C@H](C)[C@H](C[C@@H](C)O)O1)[C@H]2C
inhibition [38]: Active | inhibition [39]: inactive | inhibition [40]: Active | inhibition [41]: Active

Nc1c(/N=N/c2ccc(I)cc2)cc(S(=O)(=O)O)c2ccccc12
IC50 [1]: 14 µM

NC1(C(=O)O)CC2CCC1C2 (stereo not given)
inhibition [42]: Active

Nc1ccc(/N=N/c2ccc(-c3ccc(/N=N/c4ccc(N)c5ccc(S(=O)(=O)O)cc45)cc3)cc2)c2cc(S(=O)(=O)O)ccc12
IC50 [1]: 4.3 µM
